Publication PMC11606603, “The membrane domains of mammalian adenylyl cyclases are lipid receptors” (eLife, 2024)
Several values for one entry are separate records, joined by “and”; a condition that tells them apart may be missing. Equal entries are not always repeated. Where two headings read alike, the source gives them in different places.

Experiments:
[1] = target: T1, HEK293 cells permanently transfected with mAC5 (Homo sapiens, UniProt O95622); experiment: cAMP accumulation assay, isoproterenol-stimulated HEK-mAC5 cells; format: cell-based
T1 construct: Human mAC genes were from GenScript and fitted with a C-terminal FLAG-tag; FLAG (C); expressed in transfected cells; host or cells: HEK293, permanently transfected
Procedure: (§1) hAC sequences were from NCBI were: ADCY1: NM_021116.3; ADCY2: NM_020546.2; ADCY3: NM_004036.4; ADCY4: NM_001198568.2; ADCY5: NM_183357.2; ADCY6: NM_015270.4; ADCY7: NM_001114.4; ADCY8: NM_001115.2; ADCY9: NM_001116.3. Human mAC genes were from GenScript and fitted with a C-terminal FLAG-tag. […] The gene was synthesized by GenScript. HEK293 cells were maintained in Dulbeccos Modified Eagle Medium (DMEM) with 10% fetal bovine serum at 37°C and 5% CO2. Transfection with AC plasmids was with PolyJet (SignaGen, Frederick, MD, USA). Permanent cell lines were generated by selection for 7 days with 600 µg/ml G418 and maintained with 300 µg/ml For membrane preparation, cells were tyrpsinized, collected by centrifugation (3000 × g, 5 min) and lysed and homogenized in 20 mM HEPES, pH 7.5, 1 mM Ethylenediaminetetraacetic acid (EDTA), 2 mM MgCl2, 1 mM Dithiothreitol (DTT), one tablet of cOmplete, EDTA-free (per 50 ml) and 250 mM sucrose by 20 strokes in a potter homogenizer on ice. Debris was removed (5 min at 1000 × g, 0°C), membranes were collected at 100,000 × g, 60 min at 0°C, suspended and stored at −80°C in 20 mM MOPS, pH 7.5, 0.5 mM EDTA, 2 mM MgCl2. Membrane preparation from mouse brain cortex was according to [Seth et al., 2020]; [Schultz and Schmidt, 1987]. Three cerebral cortices were dissected and homogenized in 4.5 ml cold 48 mM Tris–HCl, pH 7.4, 12 mM MgC1_2, and 0.1 mM Ethylene glycol-bis(β-aminoethyl ether)-N,N,N′,N′-tetraacetic acid (EGTA) with a Polytron hand disperser (Kinematica AG, Switzerland). The homogenate was centrifuged for 15 min at 12,000 × g at 4°C. The pellet was washed once with 5 ml 1 mM KHCO3. The final suspension in 2 ml 1 mM KHCO3 was stored in aliquots at −80°C.
(§2) HEK293 cells stably expressing mAC isoforms 3, 5, and mAC5(membr)_mAC3(cat) were plated at 2500–10,000 cells/well into 384-well plates. […]. Addition of Cisbio HTRF detection reagents stopped the reaction and cAMP levels were determined.

mAC5(membr)–AC3(cat) = target: T2, mAC5(membr)–AC3(cat) (Homo sapiens, UniProt O60266+O95622); experiment: AC assay, Gsα-stimulated chimera mAC5–3 in membranes from transfected HEK293 cells; format: biochemical; settings: for Effect on Gsα-stimulated mAC5(membr)–AC3(cat) chimera: 300 nM Gsα, 20 µM oleic acid or 100 µM anandamide, in words
T2 construct: followed by AC5(1–402)_AC3(250–631)_AC5(761–1009)_AC3(862–1144); made in house; host or cells: HEK293, transfected; membrane preparation
Procedure: as §1
In a volume of 10 μl, AC activities were measured using 1 mM ATP, 2 mM MgCl2, 3 mM creatine phosphate, 60 μg/ml creatine kinase, and 50 mM MOPS pH 7.5. The cAMP assay kit from Cisbio (Codolet, France) was used for detection according to the supplier’s instructions. For each assay, a cAMP standard curve was established. EC50 and IC50 values were calculated by GraphPad Prism version 8.4.3 for Windows, GraphPad Software, San Diego, CA, USA, https://www.graphpad.com .

[2] = target: T3, HEK293-mAC5(membr)–AC3(cat) cells (Homo sapiens, UniProt O60266+O95622); experiment: cAMP accumulation assay, isoproterenol-stimulated HEK-mAC5–3 cells; format: cell-based
T3 construct: followed by AC5(1–402)_AC3(250–631)_AC5(761–1009)_AC3(862–1144); expressed in transfected cells; host or cells: HEK293, stably expressing the chimera
Procedure: as §1, §2

mAC9 = target: T4, mAC9 (Homo sapiens, UniProt O60503); experiment: AC assay, Gsα-stimulated mAC9 in membranes from transfected HEK293 cells; format: biochemical
T4 construct: Human mAC genes were from GenScript and fitted with a C-terminal FLAG-tag; FLAG (C); made in house; host or cells: HEK293, permanently transfected; membrane preparation
In short: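 cAMP formation was quantified by HTRF against a cAMP standard curve, with EC50 or IC50 derived by curve fitting. Reactions contained 1 mM ATP, 2 mM MgCl2, 3 mM creatine phosphate, 60 μg/ml creatine kinase and 50 mM MOPS pH 7.5, using membranes of stably transfected HEK293 cells carrying FLAG-tagged human AC.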

[3] = 20 µM fatty acid, 300 nM Gsα, single experiments

T4 sequence (O60503 whole entry): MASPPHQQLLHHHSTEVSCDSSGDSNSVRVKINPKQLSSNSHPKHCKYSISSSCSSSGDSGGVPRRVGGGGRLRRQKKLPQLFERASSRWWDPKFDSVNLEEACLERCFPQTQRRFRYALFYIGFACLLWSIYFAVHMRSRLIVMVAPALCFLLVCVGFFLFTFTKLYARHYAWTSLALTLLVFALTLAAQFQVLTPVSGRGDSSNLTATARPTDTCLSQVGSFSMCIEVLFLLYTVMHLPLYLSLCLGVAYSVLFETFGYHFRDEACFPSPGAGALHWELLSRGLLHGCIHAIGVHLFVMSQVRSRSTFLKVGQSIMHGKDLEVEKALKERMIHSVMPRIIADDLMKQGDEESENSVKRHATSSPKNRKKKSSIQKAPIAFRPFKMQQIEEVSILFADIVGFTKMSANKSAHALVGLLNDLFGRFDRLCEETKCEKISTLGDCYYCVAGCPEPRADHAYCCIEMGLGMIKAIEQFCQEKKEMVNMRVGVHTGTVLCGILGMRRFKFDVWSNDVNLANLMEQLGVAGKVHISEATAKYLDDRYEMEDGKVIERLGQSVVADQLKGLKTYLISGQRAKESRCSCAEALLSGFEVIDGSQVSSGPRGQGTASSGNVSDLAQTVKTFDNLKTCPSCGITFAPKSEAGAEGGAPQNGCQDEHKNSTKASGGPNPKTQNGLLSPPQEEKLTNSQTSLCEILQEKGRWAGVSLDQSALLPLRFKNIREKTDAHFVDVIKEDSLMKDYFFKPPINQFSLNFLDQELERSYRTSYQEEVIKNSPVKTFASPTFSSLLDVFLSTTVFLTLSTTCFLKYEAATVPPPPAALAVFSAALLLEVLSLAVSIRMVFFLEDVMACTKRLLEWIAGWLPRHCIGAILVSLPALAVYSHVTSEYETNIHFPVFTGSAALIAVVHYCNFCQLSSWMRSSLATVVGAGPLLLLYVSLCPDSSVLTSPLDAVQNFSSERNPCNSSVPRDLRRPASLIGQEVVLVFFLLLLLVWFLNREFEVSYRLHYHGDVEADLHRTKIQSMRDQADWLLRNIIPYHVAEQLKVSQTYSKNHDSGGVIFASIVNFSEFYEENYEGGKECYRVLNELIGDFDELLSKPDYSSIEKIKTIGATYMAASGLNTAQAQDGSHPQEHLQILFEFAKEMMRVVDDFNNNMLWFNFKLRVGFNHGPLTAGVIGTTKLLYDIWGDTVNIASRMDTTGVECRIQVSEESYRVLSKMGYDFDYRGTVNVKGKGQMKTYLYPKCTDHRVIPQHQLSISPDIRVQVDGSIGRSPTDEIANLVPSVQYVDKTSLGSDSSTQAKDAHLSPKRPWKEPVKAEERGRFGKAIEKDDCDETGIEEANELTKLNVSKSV
T4 sequence (P63092 2-394 Q227L partner): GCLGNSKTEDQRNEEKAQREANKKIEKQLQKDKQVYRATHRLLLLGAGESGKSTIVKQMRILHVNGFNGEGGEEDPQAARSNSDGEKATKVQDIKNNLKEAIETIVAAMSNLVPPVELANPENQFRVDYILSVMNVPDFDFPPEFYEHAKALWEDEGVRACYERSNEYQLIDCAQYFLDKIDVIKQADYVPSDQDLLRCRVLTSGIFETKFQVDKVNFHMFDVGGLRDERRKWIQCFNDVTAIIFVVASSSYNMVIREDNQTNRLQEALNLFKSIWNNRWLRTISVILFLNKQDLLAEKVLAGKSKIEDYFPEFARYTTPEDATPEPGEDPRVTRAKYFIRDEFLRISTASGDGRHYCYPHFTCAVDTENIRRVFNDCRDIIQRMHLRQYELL
T3 sequence (O95622 1-402): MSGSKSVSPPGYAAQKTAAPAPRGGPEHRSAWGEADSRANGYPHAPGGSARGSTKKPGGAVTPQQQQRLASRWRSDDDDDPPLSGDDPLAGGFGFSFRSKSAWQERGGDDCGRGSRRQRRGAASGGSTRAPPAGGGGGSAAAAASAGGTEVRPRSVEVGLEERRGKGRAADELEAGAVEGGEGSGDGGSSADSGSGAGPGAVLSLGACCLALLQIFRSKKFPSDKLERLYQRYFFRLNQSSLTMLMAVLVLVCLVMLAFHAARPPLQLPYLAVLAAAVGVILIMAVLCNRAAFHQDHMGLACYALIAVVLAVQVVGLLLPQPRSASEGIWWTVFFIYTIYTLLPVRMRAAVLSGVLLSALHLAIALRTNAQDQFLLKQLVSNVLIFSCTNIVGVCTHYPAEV
T3 sequence (O60266 250-631): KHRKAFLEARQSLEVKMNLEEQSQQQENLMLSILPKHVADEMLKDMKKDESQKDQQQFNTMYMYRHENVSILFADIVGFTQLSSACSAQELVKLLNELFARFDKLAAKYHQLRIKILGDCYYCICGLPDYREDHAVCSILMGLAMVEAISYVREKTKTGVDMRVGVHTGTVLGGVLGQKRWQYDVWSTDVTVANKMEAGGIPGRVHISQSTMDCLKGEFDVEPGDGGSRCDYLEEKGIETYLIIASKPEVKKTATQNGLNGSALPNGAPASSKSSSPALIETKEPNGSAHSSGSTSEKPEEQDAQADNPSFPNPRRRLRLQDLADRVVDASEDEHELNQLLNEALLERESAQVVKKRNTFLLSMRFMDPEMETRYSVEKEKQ
T3 sequence (O95622 761-1009): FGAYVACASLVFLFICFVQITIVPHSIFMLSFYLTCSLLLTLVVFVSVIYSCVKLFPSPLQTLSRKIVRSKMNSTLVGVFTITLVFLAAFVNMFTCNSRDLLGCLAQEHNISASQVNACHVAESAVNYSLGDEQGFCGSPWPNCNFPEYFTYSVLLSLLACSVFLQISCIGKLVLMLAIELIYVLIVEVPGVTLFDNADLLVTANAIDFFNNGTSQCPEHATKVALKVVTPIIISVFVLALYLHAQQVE
T3 sequence (O60266 862-1144): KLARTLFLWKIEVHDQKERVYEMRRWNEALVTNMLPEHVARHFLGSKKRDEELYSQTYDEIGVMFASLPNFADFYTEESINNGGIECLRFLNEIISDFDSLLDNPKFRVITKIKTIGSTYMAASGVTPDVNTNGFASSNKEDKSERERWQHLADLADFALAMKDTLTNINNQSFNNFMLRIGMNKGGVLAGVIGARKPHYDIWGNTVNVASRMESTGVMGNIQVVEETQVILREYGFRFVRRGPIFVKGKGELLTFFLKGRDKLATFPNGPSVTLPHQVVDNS
T2 sequence (O95622 1-402): as the sequence (O95622 1-402) above
T2 sequence (O60266 250-631): as the sequence (O60266 250-631) above
T2 sequence (O95622 761-1009): as the sequence (O95622 761-1009) above
T2 sequence (O60266 862-1144): as the sequence (O60266 862-1144) above
T1 sequence (O95622 whole entry): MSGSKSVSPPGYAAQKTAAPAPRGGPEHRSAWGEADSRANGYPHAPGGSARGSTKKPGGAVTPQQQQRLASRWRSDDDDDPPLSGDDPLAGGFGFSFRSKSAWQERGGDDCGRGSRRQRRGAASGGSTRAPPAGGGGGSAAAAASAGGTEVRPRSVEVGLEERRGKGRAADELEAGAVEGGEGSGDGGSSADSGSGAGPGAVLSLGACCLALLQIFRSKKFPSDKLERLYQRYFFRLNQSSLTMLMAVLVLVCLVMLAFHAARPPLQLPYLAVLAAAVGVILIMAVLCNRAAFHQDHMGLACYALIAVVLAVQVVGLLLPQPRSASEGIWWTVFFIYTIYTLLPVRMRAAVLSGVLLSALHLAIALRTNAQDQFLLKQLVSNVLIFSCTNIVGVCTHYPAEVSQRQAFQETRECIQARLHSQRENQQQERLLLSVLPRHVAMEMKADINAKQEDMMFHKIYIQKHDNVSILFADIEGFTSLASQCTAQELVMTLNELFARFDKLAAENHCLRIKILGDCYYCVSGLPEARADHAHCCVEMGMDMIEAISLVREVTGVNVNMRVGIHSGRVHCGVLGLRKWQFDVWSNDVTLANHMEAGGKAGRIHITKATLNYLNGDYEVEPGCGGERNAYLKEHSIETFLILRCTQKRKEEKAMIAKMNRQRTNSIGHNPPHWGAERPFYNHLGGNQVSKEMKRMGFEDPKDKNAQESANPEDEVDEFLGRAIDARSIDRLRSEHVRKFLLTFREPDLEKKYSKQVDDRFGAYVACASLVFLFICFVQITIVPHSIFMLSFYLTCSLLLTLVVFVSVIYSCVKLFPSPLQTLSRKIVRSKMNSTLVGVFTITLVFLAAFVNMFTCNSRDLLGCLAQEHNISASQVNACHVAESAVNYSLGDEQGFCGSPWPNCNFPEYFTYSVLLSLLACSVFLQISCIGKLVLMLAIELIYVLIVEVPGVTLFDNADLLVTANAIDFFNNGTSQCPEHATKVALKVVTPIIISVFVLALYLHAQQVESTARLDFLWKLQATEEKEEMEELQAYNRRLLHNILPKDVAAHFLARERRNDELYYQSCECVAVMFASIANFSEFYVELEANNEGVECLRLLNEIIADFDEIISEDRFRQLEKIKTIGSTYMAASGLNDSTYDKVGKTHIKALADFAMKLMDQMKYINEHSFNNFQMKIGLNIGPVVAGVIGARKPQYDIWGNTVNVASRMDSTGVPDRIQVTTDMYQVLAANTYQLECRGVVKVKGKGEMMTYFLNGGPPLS

Compound: CCCCCCCC/C=C\CCCCCCCC(=O)O [Oleic acid, Oleic ((9Z)-octadecenoic) acid]
- Effect on isoproterenol-stimulated cAMP formation in HEK-mAC5 ([1]; 2.5 µM isoproterenol, in words): unaffected
- AC activity (%); 100%= 2.5µM Isoproterenol stimulation ([1]; HEK-mAC5, oleic acid 20 µM): 107% and 100% and 135%
- Effect on Gsα-stimulated mAC5(membr)–AC3(cat) chimera (mAC5(membr)–AC3(cat)): not enhanced
- Effect on cAMP formation in HEK293-mAC5(membr)–AC3(cat) cells ([2]; in words, data not shown): ineffective
- Effect of lipid on 300 nM Gsα-stimulated mAC9 (mAC9; 20 µM, in words): significantly enhanced
- mAC9 activity [%] (100% = 300nM Gsα stimulation) (mAC9; Figure 5 B, oleic acid 0.3 µM): 100%
- EC50 (mAC9; enhancement of 300 nM Gsα-stimulated activity, read-out: EC50 for mAC9): 7.8 µM

Compound: CCCCC/C=C\C/C=C\C/C=C\C/C=C\CCCC(=O)NCCO [Anandamide, arachidonoylethanolamide]
- IC50 ([1]; 2.5 µM isoproterenol): 133 µM
- attenuation of cAMP formation in HEK293-mAC5 cells ([1]; 100 µM anandamide, 2.5 µM isoproterenol): 23%
- HEK-mAC activity (%); 100%= 2.5µM Isoproterenol stimulation, HEK-mAC5 ([1]; Anandamide 1 µM): 110% and 105% and 81% and 111% and 118% and 98% and 96% and 86%
- HEK-mAC activity (%); 100%= 2.5µM Isoproterenol stimulation, HEK-mAC5 ([1]; Anandamide 3 µM): 110% and 102% and 93% and 132%
- HEK-mAC activity (%); 100%= 2.5µM Isoproterenol stimulation, HEK-mAC5 ([1]; Anandamide 10 µM): 108% and 103% and 116% and 87% and 120% and 105% and 102%
- HEK-mAC activity (%); 100%= 2.5µM Isoproterenol stimulation, HEK-mAC5 ([1]; Anandamide 30 µM): 98% and 88% and 95% and 102%
- HEK-mAC activity (%); 100%= 2.5µM Isoproterenol stimulation, HEK-mAC5 ([1]; Anandamide 60 µM): 95% and 75% and 88% and 93% and 110%
- HEK-mAC activity (%); 100%= 2.5µM Isoproterenol stimulation, HEK-mAC5 ([1]; Anandamide 100 µM): 79% and 86% and 94% and 77% and 62% and 71%
- activity at 0.1 µM ([1]; HEK293, read-out: HEK-mAC activity (%), 100%= 2.5µM Isoproterenol stimulation, HEK-mAC5, Anandamide 0.1 µM): 100%
- activity at 30 µM ([1]; HEK293, read-out: HEK-mAC activity (%), 100%= 2.5µM Isoproterenol stimulation, HEK-mAC5, Anandamide 30 µM): 100%
- Effect on basal activity of HEK-mAC5 ([1]; up to 100 µM, data not shown, in words): no effect
- Effect on Gsα-stimulated mAC5(membr)–AC3(cat) chimera (mAC5(membr)–AC3(cat)): attenuated
- IC50 (mAC5(membr)–AC3(cat); attenuation of 300 nM Gsα-stimulated activity): 29 µM
- activity [%] (100% = 300nM Gsα stimulation) (mAC5(membr)–AC3(cat); mAC 5-3, 100µM Anandamide concentration, Figure 9 D): 41% and 69% and 72% and 65% and 48% and 42%
- activity [%] (100% = 300nM Gsα stimulation) (mAC5(membr)–AC3(cat); mAC5-3, Anandamide 0.1 µM): 100%
- activity [%] (100% = 300nM Gsα stimulation) (mAC5(membr)–AC3(cat); mAC5-3, Anandamide 1 µM): 126% and 93% and 106% and 127% and 130% and 123%
- activity [%] (100% = 300nM Gsα stimulation) (mAC5(membr)–AC3(cat); mAC5-3, Anandamide 3 µM): 121% and 102% and 118% and 146% and 144% and 129%
- activity [%] (100% = 300nM Gsα stimulation) (mAC5(membr)–AC3(cat); mAC5-3, Anandamide 10 µM): 109% and 100% and 102% and 111% and 132% and 115%
- activity [%] (100% = 300nM Gsα stimulation) (mAC5(membr)–AC3(cat); mAC5-3, Anandamide 30 µM): 77% and 70% and 88% and 68% and 74%
- activity [%] (100% = 300nM Gsα stimulation) (mAC5(membr)–AC3(cat); mAC5-3, Anandamide 100 µM): 72% and 65% and 48% and 42% and 41% and 69%
- attenuation of cAMP formation in HEK293-mAC5(membr)–AC3(cat) cells ([2]; 2.5 µM isoproterenol): 66%
- IC50 ([2]; 2.5 µM isoproterenol, +0.5 mM IBMX): 60 µM
- activity at 0.1 µM ([2]; read-out: HEK-mAC activity (%), 100%= 2.5µM Isoproterenol stimulation, HEK-mAC5-3, Anandamide 0.1 µM): 100%
- activity at 100 µM ([2]; read-out: HEK-mAC activity (%), 100%= 2.5µM Isoproterenol stimulation, HEK-mAC5-3, Anandamide 100 µM): 41%

Compound: CCCCC/C=C\C/C=C\C/C=C\C/C=C\CCCC(=O)O [Arachidonic acid, Arachidonic ((5Z,8Z,11Z,14Z)-eicosatetraenoic) acid]
- EC50 (mAC9): 7.5 µM
- mAC9 activity (%);(100% = Gsα stimulation) stimulated by 300nM Gsα (mAC9; 1 µM fatty acid, 300 nM Gsα, single experiments): 99% and 60% and 111% and 93%
- mAC9 activity (%);(100% = Gsα stimulation) stimulated by 300nM Gsα (mAC9; [3]): 234% and 150% and 190% and 172% and 188% and 135%
- mAC9 activity [%] (100% = 300nM Gsα stimulation); 20µM fatty acid concentration (mAC9; [3]): 172% and 188% and 135% and 234% and 150% and 190%
